Assay results: patent US20240092761A1, “QUINAZOLINE COMPOUNDS AND METHODS OF USE” (IAMBIC THERAPEUTICS, INC., priority 2022, published 2024)

Tests used:
[1] = molecular target: CDK2/Cyclin E1 full length (Homo sapiens (Human), UniProt P24941); assay: CDK2/Cyclin E1 Full Length ADP-Glo Kinase Assay; format: biochemical; conditions: 20 uM ATP, read-out: CDK2/ CyclinE1 IC50
How it was run: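 Full-length human CDK2/Cyclin E1 (0.328 nM) pre-incubated 30 min with inhibitor at RT, then reacted 90 min at RT with 20 uM ATP (Km 64.78 uM) and 0.75 uM substrate in pH 7.5 HEPES, 2% DMSO. ADP measured by ADP-Glo luminescence; IC50 from 4-parameter fit of fractional velocity.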

CDK4/Cyclin D1 = CDK4/Cyclin D1 (Homo sapiens (Human), UniProt P11802); assay: CDK4/Cyclin D1 Mobility Shift Assay (MSA); format: biochemical; conditions: 0.2 mM ATP, read-out: CDK4/ CyclinD1 MSA IC50
Text: CDK4/Cyclin D1 Mobility Shift Assay (MSA)
The purpose CDK4/Cyclin D1 assay is to evaluate the inhibition (% inhibition and IC50 values) in the presence of small molecule inhibitors by using a fluorescence based microfluidic mobility shift assay. CDK4/Cyclin D1 catalyzes the production of ADP from ATP that accompanies the phosphoryl transfer to the substrate peptide 5-FAM-Dyrktide (5-FAM-RRRFRPASPLRGPPK) (Perkin Elmer Peptide 34). The mobility shift assay (MSA) electrophoretically separates the fluorescently labelled peptides (substrate and phosphorylated product) following the kinase reaction. Both substrate and product are measured, and the ratio of these values is used to generate % conversion of substrate to product by the LabChip EZ Reader. Typical reaction solutions contained 2% DMSO (+/−inhibitor), 10 mM MgCl2, 1 mM EGTA, 0.05% BSA, 2 mM DTT, 0.2 mM ATP, 0.01% Brig-35, 1.5 uM 5-FAM-Dyrktide, 2.5 nM CDK4/Cyclin D1 in 50 mM HEPES buffer at pH 7.5. The reaction was initiated with the addition of substrate solution, following a 30-minute pre-incubation of enzyme and inhibitor at 22° C. in the reaction mix. The reaction was stopped after 180 minutes by the addition of 75 uL of 500 mM EDTA and measured on a Perkin Elmer EZ reader instrument. IC50 determinations were made from a plot of the fractional velocity as a function of inhibitor concentration fit to the 4 parameters IC50 equation.

OVCAR-3 cells = assay: Cell Growth Inhibition, OVCAR-3 (CellTiterGlo, 6 days); format: cell-based; conditions: OVCAR-3, 6-day treatment, CellTiterGlo 2.0
How it was run: (§1)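 MCF-7 and OVCAR-3 cells (RPMI, 10% FBS) were seeded at 500 cells/well onto compound, typically 10–10,000 nM in half-log dilutions. Growth proceeded 6 days at 37 °C, then CellTiterGlo luminescence was read. % inhibition was taken versus control, and IC50 came from a four-parameter variable-slope fit.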

MCF-7 cells = assay: Cell Growth Inhibition, MCF-7 (CellTiterGlo, 6 days); format: cell-based; conditions: MCF-7, 6-day treatment, CellTiterGlo 2.0
How it was run: as §1

CDK6/Cyclin D3 = CDK6/Cyclin D3 (Homo sapiens (Human), UniProt Q00534); assay: CDK6/Cyclin D3 ADP-Glo Kinase Assay; format: biochemical; conditions: 100 uM ATP, read-out: CDK6/ CyclinD3 IC50
How it was run: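 Recombinant human CDK6/Cyclin D3 pre-incubated 30 min with inhibitor at room temperature, then reaction started with ATP/substrate and run 90 min at room temperature. ADP formed detected by ADP-Glo luminescence; IC50 from a 4-parameter fit of fractional velocity versus inhibitor concentration.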

CDK1/Cyclin B1 = CDK1/Cyclin B1 (Homo sapiens (Human), UniProt P06493); assay: CDK1/Cyclin B1 ADP-Glo Kinase Assay; format: biochemical; conditions: 80 uM ATP
How it was run: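 CDK1/cyclin B1 (4.917 nM) preincubated 30 min with inhibitor (2% DMSO), then 80 µM ATP (Km 78.6 µM) and 0.75 µM substrate added; 90 min, room temperature, pH 7.5. ADP measured by ADP-Glo luminescence; IC50 from 4-parameter fit.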

Sequence of CDK4/Cyclin D1 (P11802 whole entry): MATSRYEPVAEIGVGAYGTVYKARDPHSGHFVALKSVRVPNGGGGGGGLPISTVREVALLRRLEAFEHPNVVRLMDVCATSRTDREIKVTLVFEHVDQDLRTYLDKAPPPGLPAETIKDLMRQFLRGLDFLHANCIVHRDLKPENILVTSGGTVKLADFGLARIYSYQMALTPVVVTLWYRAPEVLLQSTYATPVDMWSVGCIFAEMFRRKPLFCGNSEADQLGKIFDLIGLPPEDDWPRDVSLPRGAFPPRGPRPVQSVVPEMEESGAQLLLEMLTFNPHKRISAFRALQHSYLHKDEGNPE
Sequence of CDK4/Cyclin D1 (P24385 whole entry partner): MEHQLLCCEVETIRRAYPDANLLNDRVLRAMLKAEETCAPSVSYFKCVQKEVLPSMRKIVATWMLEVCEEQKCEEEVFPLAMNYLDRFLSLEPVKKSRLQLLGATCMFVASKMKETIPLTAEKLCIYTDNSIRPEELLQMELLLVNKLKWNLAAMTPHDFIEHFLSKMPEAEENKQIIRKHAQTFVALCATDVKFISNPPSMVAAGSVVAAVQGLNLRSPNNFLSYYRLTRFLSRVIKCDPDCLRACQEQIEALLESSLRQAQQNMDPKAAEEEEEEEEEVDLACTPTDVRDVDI
Sequence of CDK1/Cyclin B1 (P06493 whole entry): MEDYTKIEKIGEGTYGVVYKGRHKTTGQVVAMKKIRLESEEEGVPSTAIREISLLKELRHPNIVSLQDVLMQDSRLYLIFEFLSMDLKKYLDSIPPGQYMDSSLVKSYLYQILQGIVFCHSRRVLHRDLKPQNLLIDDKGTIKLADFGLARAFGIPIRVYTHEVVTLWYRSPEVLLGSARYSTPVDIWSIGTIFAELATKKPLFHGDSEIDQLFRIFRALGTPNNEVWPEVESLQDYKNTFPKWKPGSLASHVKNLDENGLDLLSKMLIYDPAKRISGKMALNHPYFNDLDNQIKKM
Sequence of CDK1/Cyclin B1 (P14635 whole entry partner): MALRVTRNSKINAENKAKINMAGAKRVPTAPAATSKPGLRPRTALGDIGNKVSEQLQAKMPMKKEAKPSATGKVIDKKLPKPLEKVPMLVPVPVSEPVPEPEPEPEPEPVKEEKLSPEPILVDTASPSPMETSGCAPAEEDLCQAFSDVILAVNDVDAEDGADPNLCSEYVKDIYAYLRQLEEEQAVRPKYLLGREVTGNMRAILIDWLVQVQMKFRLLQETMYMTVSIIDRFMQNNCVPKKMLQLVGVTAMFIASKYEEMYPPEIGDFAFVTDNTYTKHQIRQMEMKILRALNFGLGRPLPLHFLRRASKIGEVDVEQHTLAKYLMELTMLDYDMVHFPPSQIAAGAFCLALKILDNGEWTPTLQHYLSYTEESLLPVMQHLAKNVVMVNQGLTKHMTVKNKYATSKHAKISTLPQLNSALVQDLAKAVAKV
Sequence of CDK6/Cyclin D3 (Q00534 whole entry): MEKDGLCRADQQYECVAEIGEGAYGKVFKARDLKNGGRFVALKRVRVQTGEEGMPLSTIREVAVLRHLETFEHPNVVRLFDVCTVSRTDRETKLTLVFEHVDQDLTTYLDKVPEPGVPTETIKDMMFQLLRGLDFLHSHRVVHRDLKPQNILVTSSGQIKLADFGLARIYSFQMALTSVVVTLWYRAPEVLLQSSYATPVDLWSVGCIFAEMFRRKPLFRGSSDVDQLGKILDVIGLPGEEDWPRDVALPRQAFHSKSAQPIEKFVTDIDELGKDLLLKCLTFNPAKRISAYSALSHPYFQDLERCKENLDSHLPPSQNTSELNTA
Sequence of CDK6/Cyclin D3 (P30281 whole entry partner): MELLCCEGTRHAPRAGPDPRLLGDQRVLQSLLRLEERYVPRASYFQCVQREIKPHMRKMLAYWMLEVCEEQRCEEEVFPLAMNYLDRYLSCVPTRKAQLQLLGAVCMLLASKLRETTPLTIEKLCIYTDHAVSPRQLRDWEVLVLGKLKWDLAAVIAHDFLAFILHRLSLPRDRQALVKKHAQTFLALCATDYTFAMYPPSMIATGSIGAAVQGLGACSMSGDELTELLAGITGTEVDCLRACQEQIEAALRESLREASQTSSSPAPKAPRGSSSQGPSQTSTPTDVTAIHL

Row | Compound | IC50 [1] | IC50 (CDK4/Cyclin D1) | IC50 (OVCAR-3 cells; Homo sapiens, 144 h) | IC50 (MCF-7 cells; Homo sapiens, MCF7, 144 h) | IC50 (CDK6/Cyclin D3) | IC50 (CDK1/Cyclin B1) | IC50 (OVCAR-3 cells) | IC50 (MCF-7 cells)
1 | CC(=O)N1CCC2(CCN(c3c(F)ccc4cnc(NC5CCN(S(C)(=O)=O)CC5)nc34)C2)C1 (stereo not drawn) [Example 45, 1-(7-(7-fluoro-2-((1-(methylsulfonyl)piperidin-4-yl)amino)quinazolin-8-yl)-2,7-diazaspiro[4.4]nonan-2-yl)ethan-1-one] | < 200 nM | < 200 nM | > 2000 nM | > 2000 nM | < 200 nM | 500 to 2000 nM | – | –
2 | CS(=O)(=O)N1CCC(Nc2ncc3cccc(N4CCC5(C4)CS(=O)(=O)C5)c3n2)CC1 [Example 4, 6-(2-((1-(methylsulfonyl)piperidin-4-yl)amino)quinazolin-8-yl)-2-thia-6-azaspiro[3.4]octane 2,2-dioxide] | < 200 nM | < 200 nM | > 2000 nM | 500 to 2000 nM | < 200 nM | 500 to 2000 nM | – | –
3 | CS(=O)(=O)N1CCC(Nc2ncc3cccc(N4CC5(CCS5(=O)=O)C4)c3n2)CC1 [Example 19, 6-(2-((1-(methylsulfonyl)piperidin-4-yl)amino)quinazolin-8-yl)-1-thia-6-azaspiro[3.3]heptane 1,1-dioxide] | < 200 nM | < 200 nM | 500 to 2000 nM | 500 to 2000 nM | < 200 nM | 200 to 500 nM | – | –
4 | CN1C[C@@H]2[C@H](C1)[C@H]2Nc1ncc2cc(C(F)F)cc(N3CCC4(C3)CS(=O)(=O)C4)c2n1 [Example 54, 6-(6-(difluoromethyl)-2-(((1R,5S,6s)-3-methyl-3-azabicyclo[3.1.0]hexan-6-yl)amino)quinazolin-8-yl)-2-thia-6-azaspiro[3.4]octane 2,2-dioxide] | > 2000 nM | < 200 nM | – | – | 200 to 500 nM | > 2000 nM | > 2000 nM | > 2000 nM
5 | CS(=O)(=O)N1CCC(Nc2ncc3cccc(N4CCC4CO)c3n2)CC1 (stereo not drawn) [Example 10, (1-(2-((1-(methylsulfonyl)piperidin-4-yl)amino)quinazolin-8-yl)azetidin-2-yl)methanol] | < 200 nM | < 200 nM | > 2000 nM | > 2000 nM | < 200 nM | 200 to 500 nM | – | –
6 | CS(=O)(=O)N1CCC(Nc2ncc3cccc(N4CCN(C5COC5)CC4)c3n2)CC1 [Example 11, N-(1-(methylsulfonyl)piperidin-4-yl)-8-(4-(oxetan-3-yl)piperazin-1-yl)quinazolin-2-amine] | 500 to 2000 nM | 500 to 2000 nM | – | – | > 2000 nM | > 2000 nM | – | –
7 | CC(=O)N1CCC2(CC1)CCN(c1cccc3cnc(NC4CCN(S(C)(=O)=O)CC4)nc13)C2 [Example 25, 1-(2-(2-((1-(methylsulfonyl)piperidin-4-yl)amino)quinazolin-8-yl)-2,8-diazaspiro[4.5]decan-8-yl)ethan-1-one] | < 200 nM | < 200 nM | – | – | 200 to 500 nM | > 2000 nM | – | –
8 | CS(=O)(=O)N1CCC(Nc2ncc3cccc(N4CCC5(CCN(S(C)(=O)=O)C5)C4)c3n2)CC1 (stereo not drawn) [Example 23, 8-(7-(methylsulfonyl)-2,7-diazaspiro[4.4]nonan-2-yl)-N-(1-(methylsulfonyl)piperidin-4-yl)quinazolin-2-amine] | < 200 nM | < 200 nM | – | – | < 200 nM | > 2000 nM | – | –
9 | CS(=O)(=O)N1CCC(Nc2ncc3cccc(N4CCN(CC5CC5)CC4)c3n2)CC1 [Example 17, 8-(4-(cyclopropylmethyl)piperazin-1-yl)-N-(1-(methylsulfonyl)piperidin-4-yl)quinazolin-2-amine] | < 200 nM | 200 to 500 nM | – | – | 500 to 2000 nM | > 2000 nM | – | –
10 | CC(=O)N1CC2(CCN(c3cccc4cnc(NC5CCN(S(C)(=O)=O)CC5)nc34)C2)C1 [Example 5, 1-(6-(2-((1-(methylsulfonyl)piperidin-4-yl)amino)quinazolin-8-yl)-2,6-diazaspiro[3.4]octan-2-yl)ethan-1-one] | 200 to 500 nM | 500 to 2000 nM | – | – | 500 to 2000 nM | > 2000 nM | – | –
11 | CC1(C)CC2(CN(c3cccc4cnc(NC5CCN(S(C)(=O)=O)CC5)nc34)C2)C1 [Example 21, 8-(6,6-dimethyl-2-azaspiro[3.3]heptan-2-yl)-N-(1-(methylsulfonyl)piperidin-4-yl)quinazolin-2-amine] | 200 to 500 nM | 200 to 500 nM | – | – | > 2000 nM | > 2000 nM | – | –
12 | CS(=O)(=O)N1CCC(Nc2ncc3cccc(N4CCCC5(CCOC5)C4)c3n2)CC1 (stereo not drawn) [Example 7, N-(1-(methylsulfonyl)piperidin-4-yl)-8-(2-oxa-7-azaspiro[4.5]decan-7-yl)quinazolin-2-amine] | < 200 nM | 200 to 500 nM | – | – | 500 to 2000 nM | > 2000 nM | – | –
13 | N-(1-(methyl sulfonyl) piperidin-4-yl)-8-(2,6-diazaspiro[3.4]octan-2-yl) quinazolin-2-amine [Example 32] | < 200 nM | 200 to 500 nM | – | – | 500 to 2000 nM | > 2000 nM | – | –
14 | CN1CCN(C2CCN(c3cccc4cnc(NC5CCN(S(C)(=O)=O)CC5)nc34)C2)CC1 (stereo not drawn) [Example 29, 8-(3-(4-methylpiperazin-1-yl)pyrrolidin-1-yl)-N-(1-(methylsulfonyl)piperidin-4-yl)quinazolin-2-amine] | 200 to 500 nM | 500 to 2000 nM | – | – | > 2000 nM | > 2000 nM | – | –
15 | CS(=O)(=O)N1CCC(Nc2ncc3cccc(N4CCOC5(CC5)C4)c3n2)CC1 [Example 9, N-(1-(methylsulfonyl)piperidin-4-yl)-8-(4-oxa-7-azaspiro[2.5]octan-7-yl)quinazolin-2-amine] | 200 to 500 nM | 500 to 2000 nM | – | – | 200 to 500 nM | > 2000 nM | – | –
16 | CS(=O)(=O)N1CCC(Nc2ncc3cccc(N4CCC5(CCC(F)(F)CC5)C4)c3n2)CC1 [Example 28, 8-(8,8-difluoro-2-azaspiro[4.5]decan-2-yl)-N-(1-(methylsulfonyl)piperidin-4-yl)quinazolin-2-amine] | < 200 nM | < 200 nM | – | – | < 200 nM | > 2000 nM | – | –
17 | CS(=O)(=O)N1CCC(Nc2ncc3cccc(N4CCCC5(COC5)C4)c3n2)CC1 [Example 8, N-(1-(methylsulfonyl)piperidin-4-yl)-8-(2-oxa-6-azaspiro[3.5]nonan-6-yl)quinazolin-2-amine] | 200 to 500 nM | 500 to 2000 nM | – | – | 500 to 2000 nM | > 2000 nM | – | –
18 | CS(=O)(=O)N1CCC(Nc2ncc3cccc(N4CC5(CCOCC5)C4C4CC4)c3n2)CC1 (stereo not drawn) [Example 16, 8-(1-cyclopropyl-7-oxa-2-azaspiro[3.5]nonan-2-yl)-N-(1-(methylsulfonyl)piperidin-4-yl)quinazolin-2-amine] | < 200 nM | 500 to 2000 nM | – | – | > 2000 nM | > 2000 nM | – | –
19 | CCN1CC2(C1)CN(c1ccc(Nc3ncc4cccc(N5CC6(CCS6(=O)=O)C5)c4n3)nc1)C2 [Example 44, 6-(2-((5-(6-ethyl-2,6-diazaspiro[3.3]heptan-2-yl)pyridin-2-yl)amino)quinazolin-8-yl)-1-thia-6-azaspiro[3.3]heptane 1,1-dioxide] | > 2000 nM | < 200 nM | > 2000 nM | – | 200 to 500 nM | > 2000 nM | – | –
